The results in this text go back to ChEMBL document CHEMBL5365543, “Benzamidine Conjugation Converts Expelled Potential Active Agents into Antifungals against Drug-Resistant Fungi” (J Med Chem, 2023).

Series [1] deals with Candida albicans. Kind of series: Antifungal activity against wild-type Candida albicans SC5314 assessed as inhibition of fungal growth measured after 24 hrs by CLSI based microtiter plate analysis. It counts as functional. As to conditions: for MIC80: Candida albicans.
The subject of series [2] is Candida albicans. Kind of series: Antifungal activity against clinical isolate Candida albicans YEM13 overexpressing efflux pump MdrL assessed as inhibition of fungal growth measured after 24 hrs by CLSI based microtiter plate analysis. It counts as functional.
Series [3] has as its system Candida albicans. Kind of series: Antifungal activity against clinical isolate Candida albicans YEM15 overexpressing efflux pump CdrL and Cdr2 assessed as inhibition of fungal growth measured after 24 hrs by CLSI based microtiter plate analysis. It counts as functional.
The test system of series [4] is Candida albicans. Kind of series: Antifungal activity against clinical isolate Candida albicans SCUPC2R14MPG2A harbouring UPC2 mutation overexpressing […] Erg11 assessed as inhibition of fungal growth measured after 24 hrs by CLSI based microtiter plate analysis. It is filed as functional.
Series [5] relates to Candida albicans. Kind of series: Antifungal activity against clinical isolate Candida albicans SCMRRIR34MPG2A harbouring MRR1 mutation overexpressing efflux pump MdrL assessed as inhibition of fungal growth measured after 24 hrs by CLSI based microtiter plate analysis. It counts as functional.
The test system of series [6] is Candida albicans. Kind of series: Antifungal activity against clinical isolate fluconazole-resistant Candida albicans DSY296 harbouring TAC1 mutation overexpressing efflux pump CdrL and Cdr2 assessed as inhibition of fungal growth measured after 24 hrs by CLSI based microtiter plate analysis. It is filed as functional.
Series [7] has as its system Candida albicans. Kind of series: Antifungal activity against clinical isolate fluconazole-resistant Candida albicans G5 harbouring MRR1 mutation overexpressing MdrL assessed as inhibition of fungal growth measured after 24 hrs by CLSI based microtiter plate analysis. It counts as functional.
Series [8] deals with Candida albicans. Kind of series: Antifungal activity against clinical isolate fluconazole-resistant Candida albicans Gu5 harbouring TAC1 mutation overexpressing efflux pump CdrL and Cdr2 assessed as inhibition of fungal growth measured after 24 hrs by CLSI based microtiter plate analysis. It counts as functional.
Series [9] relates to Candida albicans. Kind of series: Antifungal activity against clinical isolate fluconazole-resistant Candida albicans CA632 assessed as inhibition of fungal growth measured after 24 hrs by CLSI based microtiter plate analysis. It is filed as functional.
The test system of series [10] is [Candida] auris. Kind of series: Antifungal activity against clinical isolate fluconazole-resistant Candida auris CBS12774 assessed as inhibition of fungal growth measured after 24 hrs by CLSI based microtiter plate analysis. It is filed as functional. As to conditions: Candidozyma auris.
Series [11] has as its system [Candida] auris. Kind of series: Antifungal activity against clinical isolate fluconazole-resistant Candida auris CBS12776 assessed as inhibition of fungal growth measured after 24 hrs by CLSI based microtiter plate analysis. It is filed as functional. As to conditions: Candidozyma auris.
The test system of the next series is Nakaseomyces glabratus. Kind of series: Antifungal activity against clinical isolate fluconazole-resistant Candida glabrata CG2 assessed as inhibition of fungal growth measured after 24 hrs by CLSI based microtiter plate analysis. It counts as functional.
In a further series the test system is Cryptococcus neoformans. Kind of series: Antifungal activity against clinical isolate fluconazole-resistant Cryptococcus neoformans H99 assessed as inhibition of fungal growth measured after 24 hrs by CLSI based microtiter plate analysis. It is filed as functional.
The test system of a further series is Candida tropicalis. Kind of series: Antifungal activity against clinical isolate fluconazole-resistant Candida tropicalis CT10 assessed as inhibition of fungal growth measured after 24 hrs by CLSI based microtiter plate analysis. It counts as functional.
Series [12] can be described thus: Drug accumulation in wild-type Candida albicans SC5314 at 50 microg/ml incubated for 3 hrs by HPLC analysis. It is filed as ADME. To be noted: dose 50 µg/ml.
Series [13] relates to Candida albicans. Kind of series: Induction of drug resistance in wild-type Candida albicans SC5314 assessed as change in MIC at 0.5 times of MIC measured after 30 passages by broth microdilution method. It is filed as functional.
A short description of series [14]: Toxicity in BALB/c mouse infected with clinical isolate fluconazole-resistant Candida albicans Gu5 assessed as animal survival at 6 mg/kg, ip administered on day 1 and day 3 post fungal infection measured after 4 days. It counts as organism-based. To be noted: in vivo, 96 h, time 4 day.
The test system of series [15] is Candida albicans. Kind of series: Antifungal activity against clinical isolate fluconazole-resistant Candida albicans Gu5 infected in BALB/c mouse assessed as fold reduction in kidney fungal burden at 6 mg/kg, ip administered on day 1 and day 3 post fungal infection measured after 7 days. It counts as functional. As to conditions: time 7.0 day.
A short description of series [16]: Induction of DNA damage in human HBE cells assessed as increase in gammaH2AX level at 2 to 8 microg/ml by Western blotting analysis. It is filed as toxicity, cell-based. To be noted: dose 2-8 µg/ml.
A short description of series [17]: Drug localization in mitochondria of Candida albicans SC5314 incubated for 30 mins by MitoTracker dye based confocal laser scanning microscopic analysis. As to conditions: 0.5 h. It counts as ADME.
Series [18] has as its system Candida albicans. Kind of series: microbe, parasite or virus in culture. It is filed as functional. As to conditions: DSY654, time 24 hrs.
Description: Antifungal activity against efflux pump-deficient Candida albicans DSY654 assessed as inhibition of fungal growth measured after 24 hrs by CLSI based microtiter plate analysis
The test system of series [19] is Candida albicans. Kind of series: Drug accumulation in Candida albicans SC5314 measured per 10^8 cells incubated for 3 hrs by HPLC analysis. It is filed as functional, organism-based.
Series [20] is described as follows: Drug accumulation in Candida albicans SC5314 by confocal laser scanning microscopic analysis. It is filed as ADME.
Series [21] in a line: Drug accumulation in wild-type Candida albicans SC5314 at 20 microg/ml incubated for 2 hrs by flow cytometery analysis. It counts as ADME. To be noted: dose 20 µg/ml.
The test system of a further series is Cell membrane. Kind of series: Disruption of membrane integrity in Candida albicans SC5314 at 16 to 32 microg/ml incubated for 1 hr by Sytox green staining based fluorescence method. It counts as subcellular. To be noted: dose 16-32 µg/ml.
Series [22] can be described thus: Induction of hemolysis in mouse RBC cells at 2 to 32 microg/ml incubated for 60 mins by absorbance based analysis. It is filed as toxicity, cell-based, Erythrocyte. As to conditions: red blood cells (erythrocytes), at 2 to 32 µg/mL, dose 2-32 µg/ml, read-out: Activity.
For series [23], the system named is Candida albicans. Kind of series: Antifungal activity against Candida albicans assessed as inhibition of fungal growth measured after 24 hrs by CLSI based microtiter plate analysis. It is filed as functional.
Series [24] can be described thus: Drug accumulation in Candida albicans TOM70-GFP-CAI4 at 20 microg/ml incubated for 30 mins by confocal laser scanning microscopic analysis. It counts as ADME. To be noted: 0.5 h, dose 20 µg/ml.
The nature of series [25]: Drug accumulation in Candida albicans YEM13 expressing efflux pump MdrL at 20 microg/ml incubated for 2 hrs by flow cytometery analysis. It is filed as ADME. As to conditions: dose 20 µg/ml.
Series [26] can be described thus: Drug accumulation in Candida albicans YEM15 expressing efflux pump CdrL and Cdr2 at 20 microg/ml incubated for 2 hrs by flow cytometery analysis. It is filed as ADME. To be noted: dose 20 µg/ml. In general terms: In flow cytometry, cells or beads pass a laser one at a time.
Series [27] is described as follows: Induction of drug resistance in wild-type Candida albicans SC5314 assessed as change in MIC at 0.5 times of MIC measured after 30 passages by broth microdilution method (reference value: 2 microg/ml). It is filed as functional. (Dilution methods test growth across graded concentrations, often in twofold steps.)
Series [28] can be described thus: Induction of DNA damage in human HBE cells assessed as increase in gammaH2AX level at 8 microg/ml by Western blotting analysis. As to conditions: dose 8 µg/ml. It counts as toxicity, cell-based. Background: In western blotting, separated proteins are transferred to a membrane and probed.

≈ marks a conversion by molar mass, not a printed value. Calls of active or inactive are those of the source. No cut-off for these calls is given here.

In general, MIC refers to the least concentration at which growth counts as inhibited. With `C[C@H]1[C@H](C)CC[C@]2(C(=O)OCCCOc3ccc(C(=N)N)cc3)CC[C@]3(C)C(=CC[C@@H]4[C@@]5(C)CC[C@H](O)C(C)(C)[C@@H]5CC[C@]43C)[C@H]12`, the MIC result with Candida albicans [1] is “inactive”. Further, the MIC80 in the series on Candida albicans [1] (SC5314, 24 h, read-out: MIC80) is 4 µg/mL (≈ 6.32 µM); in the series on Candida albicans [2], 4 µg/mL (≈ 6.32 µM); with Candida albicans [3] it was 4 µg/mL (≈ 6.32 µM); in the series on Candida albicans [4], 4 µg/mL (≈ 6.32 µM); in the series on Candida albicans [5], 4 µg/mL (≈ 6.32 µM); in the series with Candida albicans [6] it was 4 µg/mL (≈ 6.32 µM). The MIC80 with Candida albicans [7] turned out to be 4 µg/mL (≈ 6.32 µM); in the series on Candida albicans [8] it was 4 µg/mL (≈ 6.32 µM); in the series on Candida albicans [9], 4 µg/mL (≈ 6.32 µM); in series [Candida] auris [10], 8 µg/mL (≈ 12.6 µM); in [Candida] auris [11], 4 µg/mL (≈ 6.32 µM); in the series on Nakaseomyces glabratus, 4 µg/mL (≈ 6.32 µM). Further, the MIC80 in the series on Cryptococcus neoformans and with Candida tropicalis was 4 µg/mL (≈ 6.32 µM) each time. Further, the Drug uptake entry in series [12] is listed as “Active”. Also, in the series with Candida albicans [13], the outcome was Active.
Take `C=C1C(=O)[C@@]2(C)CC[C@@H]3[C@@]1(CC[C@H]1[C@@]3(C)CCC[C@@]1(C)C(=O)OCCC[P+](c1ccccc1)(c1ccccc1)c1ccccc1)C2.[I-]`: the Activity entry in series [14] is “Toxic”. Also, the result in the series with Candida albicans [15] was inactive.
For the compound `C[C@@]12CC[C@@H]3[C@](CC[C@H]4[C@@]3(C)CCC[C@@]4(C)C(=O)OCCCOc3ccc(C(=N)N)cc3)(CC1=O)C2`, in the series on Candida albicans [1], the MIC result was “inactive”. Also, the MIC80 came to 4 µg/mL (≈ 8.09 µM) in the series with Candida albicans [1] (SC5314, 24 h, read-out: MIC80); 4 µg/mL (≈ 8.09 µM) in the series with Candida albicans [2]; 4 µg/mL (≈ 8.09 µM) with Candida albicans [3]; 4 µg/mL (≈ 8.09 µM) in the series with Candida albicans [4]; 8 µg/mL (≈ 16.2 µM) in the series on Candida albicans [5]; 4 µg/mL (≈ 8.09 µM) in the series with Candida albicans [6]. In addition, the MIC80 in the series with Candida albicans [7] was determined as 8 µg/mL (≈ 16.2 µM); with Candida albicans [8], 4 µg/mL (≈ 8.09 µM); in the series on Candida albicans [9], 4 µg/mL (≈ 8.09 µM); in series [Candida] auris [10] it was 8 µg/mL (≈ 16.2 µM); in series [Candida] auris [11], 8 µg/mL (≈ 16.2 µM); in the series on Nakaseomyces glabratus, 8 µg/mL (≈ 16.2 µM). Besides, the MIC80 in the series on Cryptococcus neoformans and in the series on Candida tropicalis was 4 µg/mL (≈ 8.09 µM) each time. Further, the Drug uptake entry in [12] is “Active”. In addition, the Activity result in [16] is given as “Non-Toxic”.
Turning to `CCN(CC)c1ccc2cc(C(=O)OCCCCCCCCOc3ccc(C(=N)N)cc3)c(=O)oc2c1`, the Drug uptake result in series [17] is on record as “Active”.
With `N=C(N)c1ccc(OCCCOC(=O)c2ccccc2Nc2cccc(C(F)(F)F)c2)cc1`, in the series with Candida albicans [1] (SC5314, read-out: MIC80), the MIC80 was 8 µg/mL (≈ 17.5 µM). Besides, in [12], the Drug uptake entry is “Active”. In addition, in the series on Candida albicans [13], the result was Active.
Regarding `C=C1C[C@@]23CC[C@@H]4[C@](C)(CN)CCC[C@@]4(C)[C@@H]2CC[C@]1(O)C3`, the MIC80 against Candida albicans [18] was 32 µg/mL (≈ 105 µM); with Candida albicans [1] (SC5314, read-out: MIC80) it was over 256 µg/mL. In addition, the Drug uptake entry in the series with Candida albicans [19] was “inactive”.
`CCN(CC)c1ccc2c(-c3ccccc3C(=O)O)c3ccc(=[N+](CC)CC)cc-3oc2c1.[Cl-]` [RHODAMINE]: the Drug uptake entry in series [20] is on record as “Not Active”.
Turning to `CCN(CC)c1ccc2c(-c3ccccc3C(=O)N3CCN(Cc4cn(CCCOc5ccc(C(=N)N)cc5)nn4)CC3)c3ccc(=[N+](CC)CC)cc-3oc2c1.[Cl-]`, the Drug uptake entry in [21], in [20], in [24], in [17], in series [25] and in [26] was “Active” in each case. Further, in the series with Cell membrane, the result was inactive. For the same compound, the hemolysis at 1 h in series [22] was under 2%. The minimal inhibitory concentration (MIC) with Candida albicans [23] was over 128 µg/mL.
Consider `OC(Cn1cncn1)(Cn1cncn1)c1ccc(F)cc1F` [FLUCONAZOLE], for which the MIC80 against Candida albicans [18] is 0.5 µg/mL (≈ 1.63 µM); in the series with Candida albicans [1] (SC5314, 24 h, read-out: MIC80), 2 µg/mL (≈ 6.53 µM); with Candida albicans [2], 64 µg/mL (≈ 209 µM); in the series with Candida albicans [3], 64 µg/mL (≈ 209 µM); with Candida albicans [4], over 128 µg/mL; with Candida albicans [6] it was over 128 µg/mL. The MIC80 in the series on Candida albicans [7] is over 128 µg/mL; in the series with Candida albicans [8], over 128 µg/mL; with Candida albicans [9] it was over 128 µg/mL; in series [Candida] auris [10] it was over 128 µg/mL; in series [Candida] auris [11], over 128 µg/mL; with Nakaseomyces glabratus, 64 µg/mL (≈ 209 µM). In addition, the MIC80 with Cryptococcus neoformans is 2 µg/mL (≈ 6.53 µM); in the series on Candida tropicalis it was over 128 µg/mL. In addition, the MIC in [27] was 128 µg/mL. Further, in [28], the Activity result is given as “Non-Toxic”.
